Measured values: PubChem BioAssay AID256 (DTP/NCI, 2004)
Where “and” joins values, the source holds several entries; their conditions need not be identical. Equal entries are not always repeated. Toxic doses and inconclusive results are not listed. How the source made its calls: active means survival T/C of 150% or more; inactive means T/C below 125% in these data.

System: CD2F1 mice, L1210 leukemia ip, survival T/C
Experiment: NCI In Vivo Anticancer Drug Screen. Data for tumor model L1210 Leukemia (intraperitoneal) in CD2F1 (CDF1) mice
Settings: higher = longer survival
In short: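 Tumor-bearing mice (transplanted tumor) were split into treated and vehicle control groups, and the measured endpoint of each treated group was divided by that of its vehicle controls.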

[1] = endpoint: mean survival time, dose: 100.0 mg/kg/injection, schedule: Q04DX003 (ip), vehicle: saline with Tween-80
[2] = endpoint: mean survival time, dose: 200.0 mg/kg/injection, schedule: Q04DX003 (ip), vehicle: saline with Tween-80
[3] = endpoint: mean survival time, dose: 400.0 mg/kg/injection, schedule: Q04DX003 (ip), vehicle: saline with Tween-80

Measured: T/C

CC(C)CC(C)COC(=O)c1c(Cl)c(Cl)c(Cl)c(Cl)c1C(=O)O (centres undefined)
inactive: endpoint: mean survival time, dose: 100.0 mg/kg/injection, schedule: Q01DX001 (ip), vehicle: saline 90 % of control | endpoint: mean survival time, dose: 200.0 mg/kg/injection, schedule: Q01DX001 (ip), vehicle: saline 90 % of control

Nc1nc(N)c2c(n1)NCN(OCc1c(Cl)cccc1Cl)C2
inactive: endpoint: mean survival time, dose: 0.75 mg/kg/injection, schedule: Q01DX009 (ip), vehicle: water 96 % of control | endpoint: mean survival time, dose: 1.5 mg/kg/injection, schedule: Q01DX009 (ip), vehicle: water 100 % of control | endpoint: mean survival time, dose: 3.0 mg/kg/injection, schedule: Q01DX009 (ip), vehicle: water 102 % of control | endpoint: mean survival time, dose: 6.0 mg/kg/injection, schedule: Q01DX009 (ip), vehicle: water 102 % of control | endpoint: mean survival time, dose: 12.0 mg/kg/injection, schedule: Q01DX009 (ip), vehicle: water 104 % of control | endpoint: mean survival time, dose: 24.0 mg/kg/injection, schedule: Q01DX009 (ip), vehicle: water 100 % of control

Clc1ccc2c(NCc3ccncc3)ccnc2c1
inactive: [1] 96 % of control | [2] 95 % of control | [3] 96 % of control

CC1=C[S+](c2ccccc2)c2cccc3cc4ccccc4c1c23 (centres undefined)
inactive: endpoint: mean survival time, dose: 5.0 mg/kg/injection, schedule: Q01DX001 (ip), vehicle: saline with Tween-80 111 % of control | endpoint: mean survival time, dose: 10.0 mg/kg/injection, schedule: Q01DX001 (ip), vehicle: saline with Tween-80 106 % of control | endpoint: median survival time, dose: 0.06 mg/kg/injection, schedule: Q01DX009 (ip), vehicle: saline with Tween-80 105 % of control | endpoint: median survival time, dose: 0.12 mg/kg/injection, schedule: Q01DX009 (ip), vehicle: saline with Tween-80 105 % of control | endpoint: median survival time, dose: 0.25 mg/kg/injection, schedule: Q01DX009 (ip), vehicle: saline with Tween-80 107 % of control | endpoint: median survival time, dose: 0.5 mg/kg/injection, schedule: Q01DX009 (ip), vehicle: saline with Tween-80 109 % of control | endpoint: median survival time, dose: 1.0 mg/kg/injection, schedule: Q01DX009 (ip), vehicle: saline with Tween-80 109 % of control | endpoint: median survival time, dose: 2.0 mg/kg/injection, schedule: Q01DX009 (ip), vehicle: saline with Tween-80 115 % of control

CO[C@H](C(=O)[C@@H](O)[C@@H](C)O)[C@@H]1Cc2cc3cc(OC4CC(OC5CC(O)C(O)C(C)O5)C(O)C(C)O4)c(C)c(O)c3c(O)c2C(=O)[C@H]1OC1CC(OC2CC(OC3CC(C)(O)C(O)C(C)O3)C(O)C(C)O2)C(O)C(C)O1 (some centres undefined)
inactive: endpoint: mean survival time, dose: 0.13 mg/kg/injection, schedule: Q01DX009 (ip), vehicle: saline 95 % of control and 97 % of control and 101 % of control | endpoint: mean survival time, dose: 0.25 mg/kg/injection, schedule: Q01DX009 (ip), vehicle: saline 95 % of control and 97 % of control and 103 % of control | endpoint: mean survival time, dose: 0.5 mg/kg/injection, schedule: Q01DX009 (ip), vehicle: saline 93 % of control and 100 % of control and 105 % of control | endpoint: mean survival time, dose: 0.5 mg/kg/injection, schedule: Q01DX Z (ip), vehicle: saline 124 % of control | endpoint: mean survival time, dose: 1.0 mg/kg/injection, schedule: Q01DX009 (ip), vehicle: saline 101 % of control and 104 % of control and 107 % of control

C/C=C\c1ccc(OCCOC(=O)Nc2ccc(C)c([N+](=O)[O-])c2)c(OC)c1
inactive: endpoint: mean survival time, dose: 12.5 mg/kg/injection, schedule: Q01DX009 (ip), vehicle: saline with Tween-80 98 % of control | endpoint: mean survival time, dose: 25.0 mg/kg/injection, schedule: Q01DX009 (ip), vehicle: saline with Tween-80 92 % of control | endpoint: mean survival time, dose: 50.0 mg/kg/injection, schedule: Q01DX009 (ip), vehicle: saline with Tween-80 88 % of control and 92 % of control | endpoint: mean survival time, dose: 200.0 mg/kg/injection, schedule: Q01DX009 (ip), vehicle: saline with Tween-80 88 % of control

C/C=C/c1cnc(N)nc1-c1ccccc1
inactive: endpoint: mean survival time, dose: 100.0 mg/kg/injection, schedule: Q04DX002 (ip), vehicle: saline with Tween-80 101 % of control | endpoint: mean survival time, dose: 200.0 mg/kg/injection, schedule: Q04DX002 (ip), vehicle: saline with Tween-80 96 % of control | endpoint: mean survival time, dose: 400.0 mg/kg/injection, schedule: Q04DX002 (ip), vehicle: saline with Tween-80 96 % of control

Cc1ccc(C(=O)c2ccccc2C(=O)O)cc1O
inactive: [1] 98 % of control | [2] 101 % of control | [3] 106 % of control
